Data taken from patent US12447167B2, “GM-CSF-producing t-cell control agent and Th1/Th2 immune balance regulator” (National Center of Neurology and Psychiatry, priority 2014, dated 2025).

What was measured:
[1] = test system: GM-CSF production from lymph node T-cells; assay: Amount of GM-CSF in lymph node cell culture supernatants of mice after oral dose (ELISA); type: in vivo, C57BL/6 mice; conditions: for suppressive effects on GM-CSF production from lymph node T-cells: oral high dose 1 mg/kg
Method: Compound 31 was orally administered to 8-week-old C57BL/6 mice (female) by using a probe. The dose employed 15 μg/kg (low dose) of compound 31 or 1 mg/kg (high dose) of compound 31 dissolved in 200 μL of mouse drinking water. As a control, 200 μL of mouse drinking water was administered alone.
2 days or 7 days after the oral administration of compound 31, each mouse was euthanized by cervical dislocation, and axillary and inguinal lymph nodes were collected. The collected lymph nodes were disrupted on BD Falcon Cell Strainer (Becton, Dickinson and Company) having a diameter of 40 μm, PBS was added, and the resultant was recovered into a 50-mL conical tube and centrifuged at 1500 rpm for 5 minutes, and then, a supernatant was removed by suction.
The recovered cells were suspended into a single cell suspension by adding 1000 μL of an RPMI medium (Life Technologies Corp.) containing 10% FBS (Fetal Bovine Serum; Life Technologies Corp.), and then, the number of cells was measured with a counting chamber.
On the day prior to the lymph node collection from the mice after the administration, an anti-CD3 monoclonal antibody (self-produced) and an anti-CD28 antibody (Becton, Dickinson and Company) were each adjusted to 1 μg/mL with PBS, placed at 50 μL to each well of BD Falcon 96-well flat bottom plate (Becton, Dickinson and Company), and stored at 4° C. so that the plate was coated with the anti-CD3/CD28 antibodies. The prepared single cell suspension was inoculated at 5×10^5 cells/well to the plate and then cultured at 37° C. for 48 hours in a 5% CO2 incubator to perform stimulation with the anti-CD3 antibody and the anti-CD28 antibody.
A supernatant was recovered, and the concentration of GM-CS contained in the culture supernatant was measured by using an ELISA kit (OptEIA Mouse GM-CSF ELISA set; Becton, Dickinson and Company) according to the attached document.

[2] = test system: GM-CSF-producing CD4-positive memory T-cells; assay: GM-CSF-producing CD4-positive memory T-cells in PBMCs of MS patients after single oral dose (FACS); type: in vivo, human; conditions: 0.3 mg single oral
Method: A single dose of compound 31, which is a synthetic glycolipid of the present invention, described in the first aspect was orally administered to each of 2 MS patients (subjects) shown in Table 2 above after obtainment of informed consent. The dose was set to 0.3 mg per person.
Subsequently, T-cell subfractions were prepared from the peripheral blood of each subject by using the density gradient centrifugation method. First, a total of 20 mL of blood was collected from the vein of each subject 24 hours (1st day), 48 hours (2nd day), 72 hours (3rd day), 168 hours (7th day), and 192 hours (8th day) after the administration of compound 31 by using two 10-mL heparin sodium-containing vacuum blood collection tubes. For a control, 20 mL of blood was similarly collected from the vein of each subject one day before the administration of compound 31.
Hereinafter, peripheral blood mononuclear cells (PBMCs) were collected by the same operation as in Example 1.
The collected PBMCs were stained with antibodies by the following method. First, 10 μL of a solution consisting of 8 μL of PBS containing 0.5% BSA/2 mM EDTA-2Na, 0.5 μL of APC-Cy7-anti-CD3 antibody (BioLegend, Inc.), 0.5 μL of ECD-anti-CD8 antibody (Beckman Coulter, Inc.), and 1 μL of PB-anti-CD45RA antibody (BioLegend, Inc.) was added to 2×10^6 cells of PBMCs, thoroughly mixed by vortexing, and then left on ice for 10 minutes. CD3 is a detection marker of T-cells, and CD3^+ cells indicate being T-cells. Also, CD45RA is a detection marker of naive T-cells, and CD45RA^+ cells indicate being naive T-cells. Also, CD45RA^− cells indicate being memory T-cells. Furthermore, CD8^− cells indicate being CD4^+ cells. 1 mL of PBS containing 0.5% BSA/2 mM EDTA-2Na was added, and after centrifugation at 1500 rpm for 5 minutes, a supernatant was removed by suction. Next, 100 μL of BD FIX buffer (Becton, Dickinson and Company) was added dropwise while vortexed, and then left on ice for 20 minutes. 1 mL of MACS buffer was added again, and after centrifugation at 1500 rpm for 5 minutes, a supernatant was removed by suction. Subsequently, 1 mL of 0.1% saponin was added, and the resultant was left at room temperature under light shielding for 2 minutes.
Subsequently, the resultant was dispensed as 250 μL (I group) and 750 μL (II group), and after centrifugation at 2200 rpm for 5 minutes, a supernatant was removed by suction.
For group I, 11 μL of a solution consisting of 7 μL of 0.1% saponin, 1 μL of PerCP-Cy5.5-anti-mouse IgG1 antibody (BioLegend, Inc.), 1 μL of Alexa 488-anti-mouse IgG1 antibody (BioLegend, Inc.), 1 μL of APC-anti-mouse IgG1 antibody (BioLegend, Inc.), and 1 μL of PE-anti-rat IgG1 antibody (Becton, Dickinson and Company) was added, thoroughly mixed by vortexing, and then left on ice for 10 minutes. […]

For `CCCCCCCCCCCCCCCCCCCCCCCC(=O)NC(COC1OC(CO)C(O)C(O)C1O)[C@H](O)C(O)CCCCC` (stereo in doubt) [compound 31, (2S,3S,4R)-1-O-(α-D-galactosyl)-2-(N-tetracosanoylamino)-1,3,4-nonanetriol], the “suppressive effects on GM-CSF production from lymph node T-cells” value ([1]; 2nd day after administration) was “not seen”, the “suppressive effects on GM-CSF production from lymph node T-cells” value ([1]; 7th day after administration) was “observed” and the “GM-CSF production from lymph node T-cells” value ([1]; oral low dose 15 μg/kg, anti-CD3/CD28 stimulation 48 h, vs vehicle) was “significantly suppressed”. For the same compound, the “proportion of GM-CSF-producing CD4-positive memory T-cells in PBMCs” value ([2]; after administration vs day-1) was “decreased”, the “Abundance ratio of mCD4T (%)” value ([2]; day 1, GM-CSF-producing CD4-positive memory T-cells in PBMCs, day −1 value 9.64) was 6.035% and the “Abundance ratio of mCD4T (%)” value ([2]; day 3, day −1 value 9.64) was 6.76%. For the same compound, the “Abundance ratio of mCD4T (%)” value ([2]; day 7, day −1 value 9.64) was 14.325%.
